Test results as given in US20080269298A1, “Benzimidazol-1-YL-thiophene compounds for the treatment of cancer” (priority 2002, published 2008).
Where a name gives a salt, the structure may show the parent alone.

Columns and labels:
[1] = tested on: colon (RKO) tumor cell line; test: Methylene Blue Growth Inhibition Assay, RKO; assay type: cell-based; conditions: Homo sapiens, 72 h, 3 days, read-out: MeB IC50
Experimental: (§1) Normal Human foreskin fibroblasts (HFF) and human colon (HCT116, RKO), lung (H460), prostate (PC3), and breast tumor (MCF7) cell lines were cultured in high glucose DMEM (Life Technologies) containing 10% fetal bovine serum (FBS) at 37° C. in a humidified 10% CO2, 90% air incubator. Cells were harvested using trypsin/EDTA, counted using a haemocytometer, and plated in 100 μl of the appropriate media, at the following densities, in a 96-well tissue culture plate (Falcon 3075): HFF 5,000 cells/well, HCT116 3,000 cells/well, RKO 2,500 cells/well, H460 2,000 cells/well, PC3 8,000 cells/well, MCF7 4,000 cells/well. The next day, compounds were diluted in DMEM containing 100 μg/ml gentamicin, at twice the final required concentration, from 10 mM stock solutions in DMSO. 100μ/well of these dilutions were added to the 100 μl of media currently on the cell plates. Medium containing 0.6% DMSO was added to control wells. Compounds diluted in DMEM were added to all cell lines. The final concentration of DMSO in all wells was 0.3%. Cells were incubated at 37° C., 10% CO2 for 3 days. Medium was removed by aspiration. Cell biomass was estimated by staining cells with […] per well methylene blue (Sigma M9140, 0.5% in 50:50 ethanol:water), and incubation at room temperature for at least 30 minutes. Stain was removed, and the plates rinsed under a gentle stream of water, and air-dried. To release stain from the cells 100 μl of solubilization solution was added (1% N-lauroyl sarcosine, Sodium salt, Sigma L5125, in PBS), and plates were shaken gently for about 30 minutes. Optical density at 620 nm was measured on a microplate reader. Percent inhibition of cell growth was calculated relative to vehicle treated control wells. Concentration of compound that inhibits 50% of cell growth (IC50) was interpolated using nonlinear regression (Levenberg-Marquardt) and the equation, y=Vmax*(1-(x/(K+x)))+Y2, where “K” was equal to the IC50. In Table 1, +=10−>30 uM; ++=1−10 uM: +++=<1 uM.

[2] = tested on: colon (HCT116) tumor cell line; test: Methylene Blue Growth Inhibition Assay, HCT116; assay type: cell-based; conditions: Homo sapiens, HCT-116, 72 h; Cell Line HCT116, 3 days; read-out: MeB IC50
Experimental: as §1

[3] = tested on: breast tumor (MCF7) cell line; test: Methylene Blue Growth Inhibition Assay, MCF7; assay type: cell-based; conditions: Homo sapiens, 72 h; Cell Line MCF7, 3 days; read-out: MeB IC50
Experimental: as §1

[4] = target: T1, PLK1 kinase domain (Homo sapiens, UniProt P53350); test: Assay for Inhibition of PLK1 (SPA enzyme activity); assay type: biochemical; conditions: 2 μM ATP, read-out: Ave pIC50 PLK Enzyme Inhibition (converted)
T1 construct: made in house; host or cells: baculovirus-infected T. ni insect cells
Experimental: All procedures were performed at 4° C. Cells were lysed in so mM HEPES, 200 mM NaCl, so mM imidazole, 5% glycerol; pH 7.5. The homogenate was centrifuged at 14K rpm in a SLA-1500 rotor for 1 hr and the supernatant filtered through a 1.2 micron filter. The supernatant was loaded onto a Nickel chelating Sepharose (Amersham Pharmacia) column and washed with lysis buffer. Protein was eluted using 20%, 30% and 100% buffer B steps where buffer B is 50 mM HEPES, 200 mM NaCl, 300 mM imidazole, 5% glycerol; pH 7.5. Fractions containing PLK were determined by SDS-PAGE. Fractions containing PLK were diluted five-fold with so mM HEPES, 1 mM DTT, 5% glycerol; pH 7.5, then loaded on an SP Sepharose (Amersham Pharmacia) column. After washing the column with so mM HEPES, 1 mM DTT, 5% glycerol; pH 7.5, PLK was step eluted with so mM HEPES, 1 mM DTT, 500 mM NaCl; 5% glycerol; pH 7.5. PLK was concentrated using a 10 kDa molecular weight cutoff membrane and then loaded onto a Superdex 200 gel filtration (Amersham Pharmacia) column equilibrated in 25 mM HEPES, 1 mM DTT, 500 mM NaCl, 5% glycerol; pH 7.5. Fractions containing PLK were determined by SDS-PAGE. PLK was pooled, aliquoted and stored at −80° C. Samples were quality controlled using mass spectrometry, N-terminal sequencing and amino acid analysis.
B. Enzyme activity+/−inhibitors was determined as follows:
Compounds were added to the plate (1 μl in […]). […] Reaction Mix B is prepared as follows at 4° C.: • Reaction Mix B (Enzyme Mix) • 25 mM HEPES, pH 7.2 • 15 mM MgCl2 • 0.15 mg/ml BSA • 2 mM DTT • 2-10 nM PLK1 kinase domain
Reaction Mix A (20 μl) is added per well. Reaction Mix B (20 μl) is added per well. Incubate 1.5 hrs. at RT. The enzymatic reaction is stopped with 175 μl of SPA/EDTA bead mix (29 mM EDTA, 2.5 mg/ml Streptavidin-coated SPA in Standard Dulbecco's PBS (without Mg^2+ and Ca^2+), 60 μM ATP). Plates are sealed spun (after a 1 hr incubation at RT) at 1,000×g for 7 min or settled overnight, then plates counted in Packard TopCount for 30 seconds/well.

[5] = tested on: lung (H460) tumor cell line; test: Methylene Blue Growth Inhibition Assay, H460; assay type: cell-based; conditions: Homo sapiens, NCI-H460, 72 h; Cell Line H460, 3 days; read-out: MeB IC50
Experimental: as §1

[6] = tested on: Normal Human foreskin fibroblasts (HFF); test: Methylene Blue Growth Inhibition Assay, HFF; assay type: cell-based; conditions: 72 h, Cell Line HFF, 3 days, read-out: MeB IC50
Experimental: as §1

[7] = tested on: prostate (PC3) tumor cell line; test: Methylene Blue Growth Inhibition Assay, PC3; assay type: cell-based; conditions: Homo sapiens, 72 h; Cell Line PC3, 3 days; read-out: MeB IC50
Experimental: as §1

T1 sequence (P53350 21-346): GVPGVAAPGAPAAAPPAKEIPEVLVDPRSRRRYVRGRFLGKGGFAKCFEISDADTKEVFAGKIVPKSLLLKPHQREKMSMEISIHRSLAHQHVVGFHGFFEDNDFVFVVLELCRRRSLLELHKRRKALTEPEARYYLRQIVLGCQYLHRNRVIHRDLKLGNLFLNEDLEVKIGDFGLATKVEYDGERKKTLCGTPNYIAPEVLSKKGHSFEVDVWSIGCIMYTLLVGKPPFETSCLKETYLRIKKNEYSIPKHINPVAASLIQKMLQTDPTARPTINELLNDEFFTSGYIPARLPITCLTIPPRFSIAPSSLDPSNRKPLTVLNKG

| SMILES | IC50 [1] | IC50 [2] | IC50 [3] | IC50 [4] | IC50 [5] | IC50 [7] | IC50 [6] |
| --- | --- | --- | --- | --- | --- | --- | --- |
| NC(=O)c1sc(-n2cnc3ccccc32)cc1C#Cc1ccccc1 [Example 129, 5-(1H-Benzimidazol-1-yl)-3-(phenylethynyl)thiophene-2-carboxamide] | > 10 µM | > 10 µM | > 10 µM | 0.1 to 10 µM | > 10 µM | > 10 µM | > 10 µM |
| CS(=O)(=O)CCNC(=O)c1ccc2c(c1)ncn2-c1cc(OCc2ccccc2C(F)(F)F)c(C(N)=O)s1 [Example 155, 1-(5-(Aminocarbonyl)-4-{[2-(trifluoromethyl)benzyl]oxy}thien-2-yl)-N-[2-(methylsulfonyl)ethyl]-1H-benzimidazole-5-carboxamide] | > 10 µM | > 10 µM | > 10 µM | < 0.1 µM | > 10 µM | > 10 µM | > 10 µM |
| CS(=O)(=O)N1CCC(COc2cc(-n3cnc4cc5c(cc43)OCCO5)sc2C(N)=O)CC1 [Example 124, 5-(6,7-Dihydro-1H-[1,4]dioxino[2,3-f]benzimidazol-1-yl)-3-{[1-(methylsulfonyl)-piperidin-4-yl]methoxy}thiophene-2-carboxamide] | > 10 µM | > 10 µM | > 10 µM | 0.1 to 10 µM | > 10 µM | > 10 µM | > 10 µM |
| O=C(O)c1sc(-n2cnc3cc(Cl)c(Cl)cc32)cc1OCc1ccoc1 [Example 77, 5-(5,6-Dichloro-1H-benzimidazol-1-yl)-3-(3-furylmethoxy)thiophene-2-carboxylic acid] | > 10 µM | > 10 µM | > 10 µM | < 0.1 µM | > 10 µM | > 10 µM | > 10 µM |
| Cc1ccccc1COc1cc(-n2cnc3cc(Cl)c(Cl)cc32)sc1C(=O)O [Example 66, 5-(5,6-Dichloro-1H-benzimidazol-1-yl)-3-[(2-methylbenzyl)oxy]-thiophene-2-carboxylic acid] | > 10 µM | > 10 µM | > 10 µM | < 0.1 µM | > 10 µM | > 10 µM | > 10 µM |
| O=C(O)c1sc(-n2cnc3cc(Cl)c(Cl)cc32)cc1OCc1ccco1 [Example 78, 5-(5,6-Dichloro-1H-benzimidazol-1-yl)-3-(2-furylmethoxy)thiophene-2-carboxylic acid] | > 10 µM | > 10 µM | > 10 µM | < 0.1 µM | > 10 µM | > 10 µM | > 10 µM |

The next lines start with results.

| IC50 [1] | IC50 [2] | IC50 [3] | IC50 [4] | IC50 [5] | IC50 [7] | SMILES | IC50 [6] |
| --- | --- | --- | --- | --- | --- | --- | --- |
| > 10 µM | > 10 µM | > 10 µM | < 0.1 µM | > 10 µM | > 10 µM | O=C(O)c1sc(-n2cnc3ccc(Cl)cc32)cc1OCc1ccc(F)cc1Cl [Example 70, 5-(6-Chloro-1H-benzimidazol-1-yl)-3-[(2-Chloro-4-fluorobenzyl)oxy]-thiophene-2-carboxylic acid] | > 10 µM |
| > 10 µM | > 10 µM | > 10 µM | < 0.1 µM | > 10 µM | > 10 µM | COc1cc2ncn(-c3cc(OS(=O)(=O)c4ccccc4C)c(C(=O)O)s3)c2cc1OC [Example 151, 5-(5,6-Dimethoxy-1H-benzimidazol-1-yl)-3-{[(2-methylphenyl)sulfonyl]oxy}thiophene-2-carboxylic acid] | > 10 µM |
| > 10 µM | > 10 µM | > 10 µM | 0.1 to 10 µM | > 10 µM | > 10 µM | COc1cc2ncn(-c3cc(O)c(C(N)=O)s3)c2cc1OC [Example 152, 5-(5,6-Dimethoxy-1H-benzimidazol-1-yl)-3-hydroxythiophene-2-carboxamide trifluoroacetate] | > 10 µM |
| 1 to 10 µM | 1 to 10 µM | 1 to 10 µM | < 0.1 µM | 1 to 10 µM | > 10 µM | NC(=O)c1sc(-n2cnc3ccc(C(F)(F)F)cc32)cc1OCc1ccccc1Br [Example 119, 3-[(2-Bromobenzyl)oxy]-5-[6-(trifluoromethyl)-1H-benzimidazol-1-yl]thiophene-2-carboxamide] | > 10 µM |
| 1 to 10 µM | 1 to 10 µM | 1 to 10 µM | < 0.1 µM | 1 to 10 µM | > 10 µM | COc1cc2ncn(-c3cc(OCc4ccccc4C(C)=O)c(C(N)=O)s3)c2cc1OC [Example 105, 3-[(2-Acetylbenzyl)oxy]-5-(5,6-dimethoxy-1H-benzimidazol-1-yl)thiophene-2-carboxamide] | > 10 µM |
| 1 to 10 µM | 1 to 10 µM | 1 to 10 µM | < 0.1 µM | 1 to 10 µM | > 10 µM | NC(=O)c1ccc2c(c1)ncn2-c1cc(OCc2ccccc2C(F)(F)F)c(C(N)=O)s1 [Example 125, 1-[5-(Aminocarbonyl)-4-({[2-(trifluoromethyl)phenyl]methyl}oxy)-2-thienyl]-1H-benzimidazole-5-carboxamide] | > 10 µM |
| 1 to 10 µM | 1 to 10 µM | 1 to 10 µM | 0.1 to 10 µM | 1 to 10 µM | > 10 µM | NC(=O)c1sc(-n2c(N)nc3ccccc32)cc1OCc1ccccc1C(F)(F)F [Example 148, 5-(2-Amino-1H-benzimidazol-1-yl)-3-{[2-(trifluoromethyl)benzyl]oxy}thiophene-2-carboxamide] | > 10 µM |
| < 1 µM | < 1 µM | < 1 µM | < 0.1 µM | < 1 µM | > 10 µM | NC(=O)c1sc(-n2cnc3ccc(Br)cc32)cc1OCc1ccccc1C(F)(F)F [Example 62, 5-(6-Bromo-1H-benzimidazol-1-yl)-3-{[2-(trifluoromethyl)benzyl]-oxy}thiophene-2-carboxamide] | 1 to 10 µM |
| 1 to 10 µM | 1 to 10 µM | 1 to 10 µM | < 0.1 µM | 1 to 10 µM | > 10 µM | COc1cc2ncn(-c3cc(OCc4cccc(N(C)C)c4)c(C(N)=O)s3)c2cc1OC [Example 90, 5-(5,6-Dimethoxy-1H-benzimidazol-1-yl)-3-{[3-(dimethylamino)benzyl]oxy}thiophene-2-carboxamide] | > 10 µM |
